Data reported in ChEMBL document CHEMBL1159204, “Limonoids showing selective toxicity to DNA repair-deficient yeast and other constituents of Trichilia emetica” (J Nat Prod, 1998).
In brackets after ≈: the same amount, converted by molar mass.

How the values were obtained:
Vero = assay: Cytotoxicity against african green monkey Vero cells; format: cell-based; conditions: Chlorocebus sabaeus
Saccharomyces cerevisiae [1] = assay: DNA damaging activity against DNA repair-deficient RS 322YK (rad 52Y) yeast assessed as drug level required to produce 12 mm zone of inhibition; format: functional
Saccharomyces cerevisiae [2] = assay: DNA damaging activity against RS 188N (RAD+) yeast assessed as drug level required to produce 12 mm zone of inhibition; format: functional

SMILES	IC50 (Vero) [µg/mL]	IC12 (Saccharomyces cerevisiae [1]) [µg/mL]	IC12 (Saccharomyces cerevisiae [2]) [µg/mL]
C=C1[C@@H]([C@@]2(C)[C@@H](OC(C)=O)C[C@@]3(O)OC[C@](C)(O3)[C@@H]2CC(=O)OC)[C@@H](OC=O)[C@H](OC(=O)C(O)C(C)CC)[C@@]2(C)[C@H](c3ccoc3)CC(=O)[C@]12O (stereo not given in full)	12 (≈ 16.6 µM)	0.9	100
CC[C@@]1(O)C(=O)OCc2c1cc1n(c2=O)Cc2cc3ccccc3nc2-1 [CAMPTOTHECIN]		0.6	110
